Source: patent US12344610B2, “APOL1 inhibitors and methods of use” (Maze Therapeutics, Inc., priority 2022, dated 2025)

Biological target: T1, APOL1 G2 (Homo sapiens, UniProt O14791, DEL388-389)
T1 construct: expressed in transfected cells; host or cells: HEK293 T-REx clonal line stably expressing GCaMP6f (HEK T-REx/GCaMP6f/APOL1 G2 K6.3), doxycycline induced
T1 sequence (O14791 with tags, fused parts or gaps DEL388-389): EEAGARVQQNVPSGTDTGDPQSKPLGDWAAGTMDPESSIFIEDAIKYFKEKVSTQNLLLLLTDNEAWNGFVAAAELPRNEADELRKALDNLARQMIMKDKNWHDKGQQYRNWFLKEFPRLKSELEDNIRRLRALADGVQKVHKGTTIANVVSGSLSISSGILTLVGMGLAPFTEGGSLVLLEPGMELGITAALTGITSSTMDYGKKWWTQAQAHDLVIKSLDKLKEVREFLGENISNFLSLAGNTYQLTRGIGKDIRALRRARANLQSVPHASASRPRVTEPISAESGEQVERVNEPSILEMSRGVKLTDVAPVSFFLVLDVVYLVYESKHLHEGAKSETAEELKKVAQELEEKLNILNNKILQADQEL
Assay: APOL1-mediated calcium transport (calcium influx) assay, HEK T-REx/GCaMP6f/APOL1 G2 K6.3 cells, FLIPR TETRA
Format: cell-based
Conditions: prevention of calcium influx; geometric mean of at least 2 assay runs; † = average of a technical replicate from a single assay run
Method in brief: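 A HEK293 T-REx clone stably expressing GCaMP6f had APOL1 G2 induced with doxycycline (20 ng/mL solution added) for 6 h. Cells were then washed into Ca2+-free Tyrode's buffer (pH 7.4) and preincubated with compounds (duplicate 8-point) for 10 min at room temperature. Ca2+ injection to 5 mM final produced FLIPR GCaMP fluorescence, giving AC50 for influx inhibition (geometric mean, ≥2 runs).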

SMILES	AC50
CN1CCc2cc(OCCN3CCC4(CC3)C(=O)Nc3ccc(C#N)cc34)ccc2S1(=O)=O [Compound 154, 1′-{2-[(2-methyl-1,1-dioxo-3,4-dihydro-2H-1λ^6,2-benzothiazin-6-yl)oxy]ethyl}-2-oxo-1,2-dihydrospiro[indole-3,4′-piperidine]-5-carbonitrile]	869 nM
CS(=O)(=O)c1ccc(OCCN2CCC3(CC2)C(=O)Nc2ccc(Cl)cc23)cc1Cl [Compound 155, 5-chloro-1′-[2-(3-chloro-4-methanesulfonylphenoxy)ethyl]-1,2-dihydrospiro[indole-3,4′-piperidin]-2-one]	452 nM
CS(=O)(=O)c1ccc(OCCN2CCC3(CC2)C(=O)Nc2ccc(C#N)cc23)cc1Cl [Compound 156, 1′-[2-(3-chloro-4-methanesulfonylphenoxy)ethyl]-2-oxo-1,2-dihydrospiro[indole-3,4′-piperidine]-5-carbonitrile]	468 nM
CC(C)(C#N)c1ccc(OCCN2CCC3(CC2)C(=O)Nc2ccc(C#N)cc23)cc1 [Compound 157, 1′-{2-[4-(1-cyano-1-methylethyl)phenoxy]ethyl}-2-oxo-1,2-dihydrospiro[indole-3,4′-piperidine]-5-carbonitrile]	933 nM
CC1(S(=O)(=O)c2ccc(OCCN3CCC4(CC3)C(=O)Nc3ccc(Cl)cc34)cn2)COC1 [Compound 158, 5-chloro-1′-[2-({6-[(3-methyloxetan-3-yl)sulfonyl]pyridin-3-yl}oxy)ethyl]-1,2-dihydrospiro[indole-3,4′-piperidin]-2-one]	845 nM
CS(=O)(=O)C1(c2ccc(OCCN3CCC4(CC3)C(=O)N(CCO)c3ccc(Cl)cc34)cc2)COC1 [Compound 160, 5-chloro-1-(2-hydroxyethyl)-1′-{2-[4-(3-methanesulfonyloxetan-3-yl)phenoxy]ethyl}-1,2-dihydrospiro[indole-3,4′-piperidin]-2-one]	898 nM
Cc1cc(OCCN2CCC3(CC2)C(=O)Nc2ccc(Cl)cc23)cnc1S(C)(=O)=O [Compound 161, 5-chloro-1′-{2-[(6-methanesulfonyl-5-methylpyridin-3-yl)oxy]ethyl}-1,2-dihydrospiro[indole-3,4′-piperidin]-2-one]	539 nM
O=C1CCc2cc(OCCN3CCC4(CC3)C(=O)Nc3ccc(Cl)cc34)ccc2N1CCO [Compound 162, 5-chloro-1′-(2-{[1-(2-hydroxyethyl)-2-oxo-1,2,3,4-tetrahydroquinolin-6-yl]oxy}ethyl)-1,2-dihydrospiro[indole-3,4′-piperidin]-2-one]	603 nM
CS(=O)(=O)c1ccc(OCCN2CCC3(CC2)C(=O)Nc2ccc(Cl)cc23)cc1OC(F)F [Compound 163, 5-chloro-1′-{2-[3-(difluoromethoxy)-4-methanesulfonylphenoxy]ethyl}-1,2-dihydrospiro[indole-3,4′-piperidin]-2-one]	528 nM
CS(=O)(=O)c1ccc(OCCN2CCC3(CC2)C(=O)Nc2ccc(C#N)cc23)cc1OC(F)F [Compound 164, 1′-{2-[3-(difluoromethoxy)-4-methanesulfonylphenoxy]ethyl}-2-oxo-1,2-dihydrospiro[indole-3,4′-piperidine]-5-carbonitrile]	555 nM
CS(=O)(=O)C1(c2ccc(OCCN3CCC4(CC3)C(=O)Nc3ccc(Cl)cc34)cc2C(F)(F)F)COC1 [Compound 165, 5-chloro-1′-{2-[4-(3-methanesulfonyloxetan-3-yl)-3-(trifluoromethyl)phenoxy]ethyl}-1,2-dihydrospiro[indole-3,4′-piperidin]-2-one]	558 nM
CS(=O)(=O)C1(c2ccc(OCCN3CCC4(CC3)C(=O)Nc3ccc(C#N)cc34)cc2C(F)(F)F)COC1 [Compound 166, 1′-{2-[4-(3-methanesulfonyloxetan-3-yl)-3-(trifluoromethyl)phenoxy]ethyl}-2-oxo-1,2-dihydrospiro[indole-3,4′-piperidine]-5-carbonitrile]	618 nM
O=C1Nc2ccc(Cl)cc2C12CCN(CCOc1ccc3c(c1)CCNS3(=O)=O)CC2 [Compound 167, 6-(2-{5-chloro-2-oxo-1,2-dihydrospiro[indole-3,4′-piperidin]-1′-yl}ethoxy)-3,4-dihydro-2H-1λ^6,2-benzothiazine-1,1-dione]	467 nM
N#Cc1ccc2c(c1)C1(CCN(CCOc3ccc4c(c3)CCNS4(=O)=O)CC1)C(=O)N2 [Compound 168, 1′-{2-[(1,1-dioxo-3,4-dihydro-2H-1λ^6,2-benzothiazin-6-yl)oxy]ethyl}-2-oxo-1,2-dihydrospiro[indole-3,4′-piperidine]-5-carbonitrile]	1390 nM
CN1C(=O)Cc2cc(OCCN3CCC4(CC3)C(=O)Nc3ccc(C#N)cc34)cc(F)c21 [Compound 169, 1′-{2-[(7-fluoro-1-methyl-2-oxo-2,3-dihydro-1H-indol-5-yl)oxy]ethyl}-2-oxo-1,2-dihydrospiro[indole-3,4′-piperidine]-5-carbonitrile]	1210 nM
CC1(Oc2ncc(OCCN3CCC4(CC3)C(=O)Nc3ccc(Cl)cc34)cn2)COC1 [Compound 172, 5-chloro-1′-[2-({2-[(3-methyloxetan-3-yl)oxy]pyrimidin-5-yl}oxy)ethyl]-1,2-dihydrospiro[indole-3,4′-piperidin]-2-one]	479 nM
CCS(=O)(=O)C1(c2ccc(OCCN3CCC4(CC3)C(=O)Nc3ccc(C#N)cc34)cc2)COC1 [Compound 174, 1′-(2-{4-[3-(ethanesulfonyl)oxetan-3-yl]phenoxy}ethyl)-2-oxo-1,2-dihydrospiro[indole-3,4′-piperidine]-5-carbonitrile]	484 nM
CS(=O)(=O)C1(c2ccc(OCCN3CCC4(CC3)C(=O)Nc3ccc(Cl)cc34)cc2)CCC1 [Compound 180, 5-chloro-1′-{2-[4-(1-methanesulfonylcyclobutyl)phenoxy]ethyl}-1,2-dihydrospiro[indole-3,4′-piperidin]-2-one]	756 nM
CS(=O)(=O)C1(c2ccc(OCCN3CCC4(CC3)C(=O)Nc3ccc(C#N)cc34)cc2)CCC1 [Compound 181, 1′-{2-[4-(1-methanesulfonylcyclobutyl)phenoxy]ethyl}-2-oxo-1,2-dihydrospiro[indole-3,4′-piperidine]-5-carbonitrile]	656 nM
CS(=O)(=O)C1(c2ccc(OCCN3CCC4(CC3)C(=O)Nc3ccc(Cl)cc34)cc2)CC2(COC2)C1 [Compound 182, 5-chloro-1′-[2-(4-{6-methanesulfonyl-2-oxaspiro[3.3]heptan-6-yl}phenoxy)ethyl]-1,2-dihydrospiro[indole-3,4′-piperidin]-2-one]	574 nM
CS(=O)(=O)C1(c2ccc(OCCN3CCC4(CC3)C(=O)N(CC(F)(F)F)c3ccc(C#N)cc34)cc2)COC1 [Compound 184, 1′-{2-[4-(3-methanesulfonyloxetan-3-yl)phenoxy]ethyl}-2-oxo-1-(2,2,2-trifluoroethyl)-1,2-dihydrospiro[indole-3,4′-piperidine]-5-carbonitrile]	1280 nM
CS(=O)(=O)C1(c2ccc(OCCN3CCC4(CC3)C(=O)N(CC(F)(F)F)c3ccc(Cl)cc34)cc2)COC1 [Compound 185, 5-chloro-1′-{2-[4-(3-methanesulfonyloxetan-3-yl)phenoxy]ethyl}-1-(2,2,2-trifluoroethyl)-1,2-dihydrospiro[indole-3,4′-piperidin]-2-one]	993 nM
CS(=O)(=O)C1(c2ccc(OCCN3CCC4(CC3)C(=O)Nc3ccc(Cl)cc34)cc2)CCOCC1 [Compound 188, 5-chloro-1′-{2-[4-(4-methanesulfonyloxan-4-yl)phenoxy]ethyl}-1,2-dihydrospiro[indole-3,4′-piperidin]-2-one]	513 nM
CN1C(=O)C2(CCN(CCOc3cc(F)c(C4(S(C)(=O)=O)COC4)c(F)c3)CC2)c2cc(C#N)ccc21 [Compound 189, 1′-{2-[3,5-difluoro-4-(3-methanesulfonyloxetan-3-yl)phenoxy]ethyl}-1-methyl-2-oxo-1,2-dihydrospiro[indole-3,4′-piperidine]-5-carbonitrile]	349 nM
CC(C)(c1ccc(OCCN2CCC3(CC2)C(=O)Nc2ccc(C#N)cc23)cn1)S(C)(=O)=O [Compound 191, 1′-(2-{[6-(2-methanesulfonylpropan-2-yl)pyridin-3-yl]oxy}ethyl)-2-oxo-1,2-dihydrospiro[indole-3,4′-piperidine]-5-carbonitrile]	1170 nM
